Data reported in patent US8455475B2 (Gruenenthal GmbH, priority 2009, dated 2013).

What was measured:
[1] = molecular target: T1, rat B1R (bradykinin receptor 1) (Rattus norvegicus, UniProt P97583); test: FLIPR Ca2+ assay (Fluo-4) on CHO K1 cells stably transfected with the B1R gene of the rat (rB1R cells): % inhibition at 10 μM / IC50, agonist Des-Arg9-bradykinin; type: cell-based; conditions: CHO-K1, rat B1R
T1 construct: expressed in transfected cells; host or cells: CHO K1 cells
T1 sequence (P97583 1-337): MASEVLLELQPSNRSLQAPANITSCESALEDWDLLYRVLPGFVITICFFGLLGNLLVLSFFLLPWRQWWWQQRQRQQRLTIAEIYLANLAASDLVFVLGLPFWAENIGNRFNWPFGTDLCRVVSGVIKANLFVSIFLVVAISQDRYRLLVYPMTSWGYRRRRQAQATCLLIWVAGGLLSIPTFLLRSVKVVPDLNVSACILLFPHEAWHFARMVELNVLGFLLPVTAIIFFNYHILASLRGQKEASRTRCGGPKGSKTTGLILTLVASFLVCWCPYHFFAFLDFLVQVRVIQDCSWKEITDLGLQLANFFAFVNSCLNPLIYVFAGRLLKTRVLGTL
In short: (§1)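 Stable CHO K1 lines, Fluo-4 dye, probenecid-containing buffer. Cpd 10 μM or dose range, 10–20 min, then EC80 agonist (h: Lys-Des-Arg9-BK; r: Des-Arg9-BK). Readout peak FC; % inhibition vs max; IC50 from n=2–3, N≥2.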

[2] = molecular target: T2, human B1R (bradykinin receptor 1) (Homo sapiens, UniProt P46663); test: FLIPR Ca2+ assay (Fluo-4) on CHO K1 cells stably transfected with the human B1R gene (hB1R cells): % inhibition at 10 μM / IC50, agonist Lys-Des-Arg9-bradykinin; type: cell-based; conditions: CHO-K1, human B1R
T2 construct: expressed in transfected cells; host or cells: CHO K1 cells
T2 sequence (P46663 1-353): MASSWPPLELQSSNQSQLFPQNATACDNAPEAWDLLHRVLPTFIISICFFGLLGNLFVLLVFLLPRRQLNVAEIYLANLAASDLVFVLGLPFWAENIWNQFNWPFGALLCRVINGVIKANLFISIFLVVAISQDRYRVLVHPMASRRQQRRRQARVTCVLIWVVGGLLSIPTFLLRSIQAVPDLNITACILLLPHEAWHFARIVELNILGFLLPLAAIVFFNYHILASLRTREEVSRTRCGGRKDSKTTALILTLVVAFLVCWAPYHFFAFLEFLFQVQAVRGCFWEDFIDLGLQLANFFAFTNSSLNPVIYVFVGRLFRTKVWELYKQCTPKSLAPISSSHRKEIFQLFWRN
In short: as §1

inhibition at 10 µM [1] | inhibition at 10 µM [2] | SMILES
102% | 99% | Cc1cc2c(cc1C(=O)N1CCC3(CC1)CCN(c1ccncc1)CC3)[C@H](NC(=O)c1ccccc1Cl)CC2 [Example H-66, 2-Chloro-N-[(1R)-5-methyl-6-(9-pyridin-4-yl-3,9-diazaspiro[5.5]undecane-3-carbonyl)-2,3-dihydro-1H-inden-1-yl]-benzamide]
102% | 100% | O=C(N[C@@H]1CCOc2ccc(C(=O)N3CCC4(CCN(c5ccncc5)CC4)C3)cc21)c1ccccc1Cl [Example H-67, 2-Chloro-N-[(4R)-6-(8-pyridin-4-yl-3,8-diazaspiro[4.5]decane-3-carbonyl)-3,4-dihydro-2H-chromen-4-yl]-benzamide]
93% | 96% | COc1ccc2cc(C(=O)N[C@@H]3CCc4ccc(C(=O)N5CCC6(CC5)CCN(c5ccncc5)C6)cc43)ccc2c1 [Example H-68, 6-Methoxy-N-[(1R)-6-(3-pyridin-4-yl-3,8-diazaspiro[4.5]decane-8-carbonyl)-2,3-dihydro-1H-inden-1-yl]-naphthalene-2-carboxylic acid amid]
102% | 98% | O=C(N[C@@H]1CCCc2ccc(C(=O)N3CCCC4(CCCN(c5ccncc5)C4)C3)cc21)c1ccccc1Cl (stereo partly drawn) [Example H-69]
103% | 90% | O=C(N[C@@H]1CCCc2ccc(C(=O)N3CCCC4(CCN(c5ccncc5)C4)C3)cc21)c1ccccc1Cl (stereo partly drawn) [Example H-70, 2-Chloro-N-[(1R)-7-(2-pyridin-4-yl-2,9-diazaspiro[4.5]decane-9-carbonyl]-1,2,3,4-tetrahydro-naphthalen-1-yl]-benzamide]
103% | 100% | O=C(N[C@@H]1CCCc2ccc(C(=O)N3CC4(CCN(c5ccncc5)CC4)C3)cc21)c1ccccc1Cl [Example H-71, 2-Chloro-N-[(1R)-7-(7-pyridin-4-yl-2,7-diazaspiro[3.5]nonane-2-carbonyl)-1,2,3,4-tetrahydro-naphthalen-1-yl]-benzamide]
104% | 100% | O=C(N[C@@H]1CCCc2ccc(C(=O)N3CCC4(CC3)CCN(c3ccncc3)C4)cc21)c1ccccc1Cl [Example H-72]
103% | 100% | O=C(N[C@@H]1CCOc2c(F)cc(C(=O)N3CCC4(CCN(c5ccncc5)CC4)C3)cc21)c1ccccc1Cl [Example H-73, 2-Chloro-N-[(4R)-8-fluoro-6-(8-pyridin-4-yl-3,8-diazaspiro[4.5]decane-3-carbonyl)-3,4-dihydro-2H-chromen-4-yl]-benzamide]
100% | 94% | Cc1cc(OC(F)(F)F)ccc1C(=O)N[C@@H]1CCc2ccc(C(=O)N3CCC4(CCN(c5ccncc5)CC4)C3)cc21 [Example H-74, 2-Methyl-N-[(1R)-6-(8-pyridin-4-yl-3,8-diazaspiro[4.5]decane-3-carbonyl)-2,3-dihydro-1H-inden-1-yl]-4-(trifluoromethyloxy)-benzamide]
64% | 29% | Cc1cc(OC(F)(F)F)ccc1C(=O)N[C@@H]1CCc2ccc(C(=O)N3CCC4(CC3)CCN(c3ccncc3)C4)cc21 [Example H-75, 2-Methyl-N-[(1R)-6-(3-pyridin-4-yl-3,8-diazaspiro[4.5]decane-8-carbonyl)-2,3-dihydro-1H-inden-1-yl]-4-(trifluoromethyloxy)-benzamide]
102% | 100% | O=C(N[C@@H]1CCc2ccc(C(=O)N3CCC4(CCN(c5ccncc5)CC4)C3)cc21)c1c(Cl)cccc1C(F)(F)F [Example H-76, 2-Chloro-N-[(1R)-6-(8-pyridin-4-yl-3,8-diazaspiro[4.5]decane-3-carbonyl)-2,3-dihydro-1H-inden-1-yl]-6-(trifluoromethyl)-benzamide]
104% | 100% | O=C(N[C@@H]1CCOc2c(F)cc(C(=O)N3CCC4(CC3)CCN(c3ccncc3)CC4)cc21)c1ccccc1Cl [Example H-78]
